Measurements as given in paper PMC4308941 (Cough (London, England), 2014).

Key:
[1] = system: normotensive volunteers / hypertensive patients; set-up: method as in PMID 11116103; details: cited from earlier work
[2] = system: healthy volunteers; test: Spontaneous cough recordings (diary); type: in vivo, human; details: for total distinct coughing episodes: during 7-day treatment, 40 volunteers; for volunteers who recorded at least 1 spontaneous coughing episode: out of 40, during 7-day treatment
Experimental: (§1) Capsaicin and citric acid cough challenges were performed prior to and following each 7-day treatment period (Table 2). Cough sensitivity was assessed as the lowest capsaicin or citric acid concentrations causing at least 2 (C2) or 5 coughs (C5), provided that cough was still present following inhalation of the next tussigenic concentration. C2 and C5 values were converted to logC2 and logC5, respectively, for analysis. Concentrations of both capsaicin and citric acid were prepared according to standard procedures, nebulized by a jet nebulizer (DeVilbiss 646, DeVilbiss Health Care Inc., Somerset, PA) driven by compressed air (8 L/min), and inhaled for 1 min during normal tidal breathing. Volunteers undergoing cough challenges were specifically instructed not to attempt to suppress coughs and not to talk immediately after inhalation of the tussigenic agent. In addition, subjects were given the following instruction: “allow yourself to cough if you need to, and as much as you need to”. Subjects were also requested to note on a diary the occurrence of spontaneous cough during the two 7-day treatment periods, using a verbal scale.
A p value <0.05 was considered statistically significant.

[3] = system: healthy volunteers; test: Adverse event and vital signs monitoring; type: in vivo, human
Experimental: (§2) This was a repeated-dose, balanced, two-sequence, two-period, two-treatment, non-placebo controlled, randomized, crossover design study. Since this study examined two ACE-i agents with similar characteristics and was performed using an open design, blinding was not necessary. […] The administered doses were those used for treatment of hypertension and which would yield a similar percentage of responders.

[4] = system: guinea pigs; details: cited from earlier work
[5] = system: bradykinin (BK); test: Bradykinin plasma levels; type: in vivo, human; details: day 7 of treatment period, zofenopril 30 mg vs ramipril 10 mg
Experimental: (§3) Blood samples for the measurement of PK parameters and for BK determination were obtained at pre-dose and after drug administration for each of the two study periods (Table 2). […] Repeated pre-dose PK variables determination was performed in order to establish baseline variability.

[6] = single dose, cited from earlier work
[7] = system: healthy volunteers; test: Citric acid cough challenge (cough sensitivity C2/C5); type: in vivo, human
Experimental: as §2, §1

[8] = system: healthy volunteers; test: Airway inflammation by fractional exhaled nitric oxide (FeNO); type: in vivo, human
Text: FeNO measurements were always performed before cough challenges using a standardized single-breath method with an electrochemical analyzer (HypAir FeNO system, Medisoft, Sorinnes, BE). Subjects were seated (with no nose clip), and exhaled to residual volume, inserted the mouthpiece, inhaled to total lung capacity, then exhaled for 10 seconds at a constant flow rate of 0.05 L/s ± 10%. The end-point of measurement was considered when a plateau of at least 4 seconds was observed. Exhalations were repeated after a 30-second period of relaxation until 3 independent FeNO values with ≤10% variation were obtained.

[9] = system: rabbits; details: cited from earlier work
[10] = system: healthy volunteers; test: Capsaicin cough challenge (cough sensitivity C2/C5); type: in vivo, human
Experimental: as §2, §1

[11] = system: ACE; details: compared with complexes of other ACE inhibitors; cited from earlier work
[12] = cited from earlier work
[13] = system: prostaglandins; set-up: method as in PMID 1850188; details: in-vivo study, compared with other ACE-i; cited from earlier work
[14] = system: plasma ACE activity; details: at 24 h after single oral doses of 30 mg; cited from earlier work
[15] = Plasma pharmacokinetics at steady state (day 7)
Experimental: as §3
Spontaneous cough occurring during the two treatment periods was only qualitatively assessed, as the prevalence was expected to be low or very low. AUCss,τ PK parameters were calculated from the individual concentration-time data by using the program WinNonlin software (Pharsight Corporation, Mountain View, CA, USA) and summarized by treatment by means of descriptive statistics, in order to determine mean and standard deviation values. Paired t-test was used to compare mean FeNO values recorded after administration of the test and the reference drug. Statistical analyses were performed by using GraphPad Prism, version 3.02 (GraphPad Software, Inc. La Jolla, CA); sample size and power calculations were performed by using a dedicated software (nQuery Advisor, release 2.0, Los Angeles, CA). A p value <0.05 was considered statistically significant.

Compound: CCOC(=O)[C@H](CCc1ccccc1)N[C@@H](C)C(=O)N1CCC[C@H]1C(=O)O [enalapril]
- effect on FeNO in hypertensive patients [1]: did not show FeNO increase
- effect on FeNO in normotensive volunteers ([1]; within a few hours): capable of increasing FeNO

Compound: CCOC(=O)[C@H](CCc1ccccc1)N[C@@H](C)C(=O)N1[C@H](C(=O)O)C[C@@H]2CCC[C@@H]21 [ramipril]
- total distinct coughing episodes [2]: 24
- volunteers who recorded at least 1 spontaneous coughing episode [2]: 9
- subjects reporting adverse events of mild intensity ([3]; human, in vivo, 7 days): 5
- augmentation of citric-acid induced cough [4]: 40-60%
- BK plasma levels after administration [5]: No difference
- time to peak antihypertensive effect ([6]; after oral administration): 3 to 6 h
- duration of antihypertensive effect ([6]; oral): 24 h
- citric acid LogC2, mean ± SD ([7]; human, in vivo, 7 days): 1.48 ± 1.09 mM
- citric acid LogC5, mean ± SD ([7]; human, in vivo, 7 days): 2.23 ± 1.04 mM
- FeNO, mean ± SD ([8]; in vivo): 33 ± 16 PPB
- cough response induced by mechanical and chemical airway stimulation [9]: increased
- capsaicin LogC5 (concentration causing at least 5 coughs), mean ± SD ([10]; human, in vivo, 7 days): 0.45 ± 0.38 μM

Compound: C[C@H](N[C@@H](CCc1ccccc1)C(=O)O)C(=O)N1[C@H](C(=O)O)C[C@@H]2CCC[C@@H]21 [ramiprilat]
- stability/dissociation of inhibitor-ACE complex [11]: dissociates more slowly
- time to peak plasma concentrations ([12]; after intake of ramipril): 2 to 4 h

Compound: C[C@H](CSC(=O)c1ccccc1)C(=O)N1C[C@@H](Sc2ccccc2)C[C@H]1C(=O)O [zofenopril]
- total distinct coughing episodes [2]: 36
- volunteers who recorded at least 1 spontaneous coughing episode [2]: 7
- subjects reporting adverse events of mild intensity ([3]; of 40 subjects, headache, vomit, backache, vertigo): 8
- effect on citric-acid induced cough [4]: did not increase
- capability to stimulate the production of prostaglandins [13]: less than that of other ACE-i
- BK plasma levels after administration [5]: No difference
- suppression of plasma ACE activity [14]: 74.4%
- citric acid LogC2, mean ± SD ([7]; after 7-day treatment, 40 volunteers, controls 1.85 ± 1.24 (zofenopril), 1.80 ± 1.28 (ramipril)): 1.81 ± 1.27 mM
- citric acid LogC5, mean ± SD ([7]; after 7-day treatment, 40 volunteers, controls 2.69 ± 1.88 (zofenopril), 2.67 ± 2.01 (ramipril)): 2.51 ± 1.57 mM
- FeNO, mean ± SD ([8]; after 7-day treatment, controls 22 ± 12 (zofenopril), 24 ± 9.6 (ramipril)): 26 ± 12 PPB
- oral absorption ([12]; after oral administration): completely absorbed
- cough response induced by mechanical and chemical airway stimulation [9]: but not zofenopril, increased
- Cmin (lowest plasma concentration in the τ period) ([15]; 24 h interval after administration on day 7): 0
- AUCss,τ, mean ± SD ([15]; 24 h interval after drug administration on day 7, zofenopril 30 mg/day or ramipril 10 mg/day oral): 84.25 ± 34.47 ng/ml x h
- capsaicin LogC2 (concentration causing at least 2 coughs), mean ± SD ([10]; after 7-day treatment (zofenopril 30 mg/day, ramipril 10 mg/day), 40 volunteers, controls 0.81 ± 0.42 (zofenopril), 0.78 ± 0.41 (ramipril)): 0.75 ± 0.40 μM
- capsaicin LogC5 (concentration causing at least 5 coughs), mean ± SD ([10]; after 7-day treatment, 40 volunteers, controls 1.4 ± 0.72 (zofenopril), 1.3 ± 0.63 (ramipril)): 1.3 ± 0.68 μM

Compound: C[C@H](CS)C(=O)N1C[C@@H](Sc2ccccc2)C[C@H]1C(=O)O [zofenoprilat]
- time to peak blood levels ([12]; after oral administration of zofenopril): 1.5 h
